Where two headings read alike, the source gives them in different places.
Target: SARS-CoV-2 NSP3 macrodomain (Mac1), P43 crystal form (Severe acute respiratory syndrome coronavirus 2, UniProt P0DTD1)
Type: binding
Conditions: for 1-BDC: PanDDA background density correction; for Total number of conformations: ligand conformations modeled in Mac1 crystal structure; for X-ray crystallography: Binding site: site where the ligand is bound in the X-ray crystal structure
[1] = X-ray crystal structure determined (TRUE)
[2] = crystal soak, soak concentration 10 mM
[3] = crystal soak, soak concentration 10 mM, TRUE = ligand hit
[4] = occupancy estimate from PanDDA 1-BDC
[5] = site of ligand in X-ray crystal structure
[6] = crystal soak 10 mM, P43 crystals
[7] = occupancy estimate from PanDDA BDC
[8] = TRUE = crystal structure with ligand determined
[9] = crystal soak concentration 10 mM, event 1
[10] = crystal soak concentration 10 mM, P43 crystals
[11] = crystal soak concentration 10 mM
[12] = crystal soak concentration 20 mM
[13] = crystal soak concentration 20 mM, event 1
[14] = crystal soak concentration 20 mM, P43 crystals
[15] = site of Mac1 where ligand bound in crystal structure

OCC(Nc1ncnc2[nH]ccc12)c1ccccc1 (centres unmarked) [AVI-3715]
1-BDC: 0.18 | X-ray crystal structure [1]: TRUE | Pandda run, overall: Modeled [2]: TRUE | Pandda run, overall: Hit [3]: TRUE | Total number of conformations: 1 | 2*(1-BDC) (%) [4]: 36% | Binding site [5]: Adenosine | PanDDA run, DMSO background map: 1-BDC (soak concentration 10 mM): 0.18 | PanDDA run, DMSO background map: Hit (soak concentration 10 mM): TRUE

O=C(O)C(F)(F)F.OC[C@@H]1CC2(CC2)CN1c1ncnc2[nH]ccc12 [AVI-3710]
1-BDC: 0.26 | Pandda run, overall: Modeled [2]: TRUE | Pandda run, overall: Modeling comment [2]: Weak density for open state of Phe132 loop | Pandda run, overall: Hit [3]: TRUE | Total number of conformations: 2 | 2*(1-BDC) (%) [4]: 52% | X-ray crystallography: Binding site: Adenosine | PanDDA run, DMSO background map: 1-BDC (soak concentration 10 mM): 0.26 | PanDDA run, DMSO background map: Hit (soak concentration 10 mM): TRUE

CC(C)(C)C1CCC(CO)N(c2ncnc3[nH]ccc23)C1 (centres unmarked) [AVI-3719]
1-BDC: 0.08 | Phe132 loop open state (TRUE = open state of Phe132 loop modeled): TRUE | Pandda run, overall: Modeled [2]: TRUE | Pandda run, overall: Hit [3]: TRUE | Total number of conformations: 1 | 2*(1-BDC) (%) [4]: 16% | X-ray crystallography: Binding site: Adenosine | PanDDA run, DMSO background map: 1-BDC (soak concentration 10 mM): 0.08 | PanDDA run, DMSO background map: Hit (soak concentration 10 mM): TRUE

OCC(Cc1cncs1)Nc1ncnc2[nH]ccc12 (centres unmarked) [AVI-3703]
1-BDC: 0.15 | X-ray crystal structure [1]: TRUE | Pandda run, overall: Modeled [2]: TRUE | Pandda run, overall: Hit [3]: TRUE | Total number of conformations: 1 | 2*(1-BDC) (%) [4]: 30% | Binding site [5]: Adenosine | PanDDA run, DMSO background map: 1-BDC (soak concentration 10 mM): 0.15 | PanDDA run, DMSO background map: Hit (soak concentration 10 mM): TRUE

CN(C)C[C@@]1(O)CCCN(c2ncnc3[nH]ccc23)C1 [AVI-614]
Pandda run, overall: Modeling comment [2]: Weak density, not modeled | Pandda run, overall: Hit [3]: TRUE | PanDDA run, DMSO background map: 1-BDC (soak concentration 10 mM): 0.17 | PanDDA run, DMSO background map: Hit (soak concentration 10 mM): TRUE

CC(C)(C)[C@@H]1CCN(c2ncnc3[nH]ccc23)[C@H](CO)C1 [AVI-3722]
1-BDC: 0.11 | Pandda run, overall: Modeled [2]: TRUE | Pandda run, overall: Hit [3]: TRUE | Total number of conformations: 1 | 2*(1-BDC) (%) [4]: 22% | X-ray crystallography: Binding site: Adenosine | PanDDA run, DMSO background map: 1-BDC (soak concentration 10 mM): 0.11 | PanDDA run, DMSO background map: Hit (soak concentration 10 mM): TRUE

OC1CCN(c2ncnc3[nH]ccc23)C1 (centres unmarked) [AVI-3661]
Occupancy difference (refined_occupancy - 2*(1-BDC)): 10 | Refined ligand occupancy (%): 40% | 1-BDC: 0.15 | Pandda run, overall: Hit [6]: TRUE | Pandda run, overall: Modeled [6]: TRUE | PanDDA run, DMSO background map: 1-BDC (crystal soak 10 mM): 0.15 | PanDDA run, DMSO background map: Hit (crystal soak 10 mM): TRUE | Total number of conformations: 1 | 2*(1-BDC) (%) [7]: 30% | Refined TFA occupancy (%) (occupancy of TFA in the dataset of the named ligand): 20% | X-ray crystallography: Binding site: Adenosine

CC(C)C1CCCN1c1ncnc2[nH]ccc12 (centres unmarked) [AVI-5216]
Occupancy difference (refined_occupancy - 2*(1-BDC)): 14 | Refined ligand occupancy (%): 40% | PanDDA run, DMSO background map: 1-BDC (event 1): 0.13 | 1-BDC: 0.13 | Total number of conformations: 1 | 2*(1-BDC) (%) [7]: 26% | X-ray crystallography: Binding site: Adenosine

OCC(Nc1ncnc2[nH]ccc12)c1ccco1 (centres unmarked) [AVI-3659]
1-BDC: 0.16 | X-ray crystal structure [1]: TRUE | Pandda run, overall: Hit [6]: TRUE | Pandda run, overall: Modeled [6]: TRUE | PanDDA run, DMSO background map: 1-BDC (crystal soak 10 mM): 0.16 | PanDDA run, DMSO background map: Hit (crystal soak 10 mM): TRUE | Total number of conformations: 1 | 2*(1-BDC) (%) [4]: 32% | Binding site [5]: Adenosine

O=C(O)C(F)(F)F.OCC1C2C=CC(C2)N1c1ncnc2[nH]ccc12 (centres unmarked) [AVI-3712]
Pandda run, overall: Modeling comment [2]: Weak density, not modeled | Pandda run, overall: Hit [3]: TRUE | PanDDA run, DMSO background map: 1-BDC (soak concentration 10 mM): 0.15 | PanDDA run, DMSO background map: Hit (soak concentration 10 mM): TRUE | PanDDA run, TFA/DMSO background map: 1-BDC (soak concentration 10 mM): 0.05 | PanDDA run, TFA/DMSO background map: Hit (soak concentration 10 mM): TRUE

NC(=O)C1(O)CCN(c2ncnc3[nH]ccc23)C1 (centres unmarked) [AVI-611]
1-BDC: 0.22 | Pandda run, overall: Modeled [2]: TRUE | Pandda run, overall: Hit [3]: TRUE | X-ray crystal structure (crystal structure with Mac1 determined (TRUE)): TRUE | Total number of conformations: 2 | 2*(1-BDC) (%) [4]: 44% | Binding site (site of ligand in Mac1 crystal structure): Adenosine | PanDDA run, DMSO background map: 1-BDC (soak concentration 10 mM): 0.22 | PanDDA run, DMSO background map: Hit (soak concentration 10 mM): TRUE

O=C(O)C(F)(F)F.OCC(CC1CCOCC1)Nc1ncnc2[nH]ccc12 (centres unmarked) [AVI-3676]
Pandda run, overall: Modeling comment [6]: TFA only

OCC(CC1CC1)Nc1ncnc2[nH]ccc12 (centres unmarked) [AVI-3662]
1-BDC: 0.14 | X-ray crystal structure [1]: TRUE | Pandda run, overall: Hit [6]: TRUE | Pandda run, overall: Modeled [6]: TRUE | Pandda run, overall: Modeling comment [6]: Distal site, weak density, not modeled | PanDDA run, DMSO background map: 1-BDC (crystal soak 10 mM): 0.14 | PanDDA run, DMSO background map: Hit (crystal soak 10 mM): TRUE | Total number of conformations: 1 | 2*(1-BDC) (%) [4]: 28% | Binding site [5]: Adenosine

CCC(Nc1ncnc2[nH]ccc12)C(C)O (centres unmarked) [AVI-3635]
1-BDC: 0.14 | X-ray crystal structure [1]: TRUE | Pandda run, overall: Hit [6]: TRUE | Pandda run, overall: Modeled [6]: TRUE | PanDDA run, DMSO background map: 1-BDC (crystal soak 10 mM): 0.14 | PanDDA run, DMSO background map: Hit (crystal soak 10 mM): TRUE | Pandda run, overall: Hit [3]: TRUE | Total number of conformations: 2 | 2*(1-BDC) (%) [4]: 28% | Binding site [5]: Adenosine | PanDDA run, DMSO background map: 1-BDC (soak concentration 10 mM): 0.23 | PanDDA run, DMSO background map: Hit (soak concentration 10 mM): TRUE

OCC(CC1CCCO1)Nc1ncnc2[nH]ccc12 (centres unmarked) [AVI-3660]
1-BDC: 0.23 | X-ray crystal structure [1]: TRUE | Pandda run, overall: Hit [6]: TRUE | Pandda run, overall: Modeled [6]: TRUE | PanDDA run, DMSO background map: 1-BDC (crystal soak 10 mM): 0.23 | PanDDA run, DMSO background map: Hit (crystal soak 10 mM): TRUE | Total number of conformations: 1 | 2*(1-BDC) (%) [4]: 46% | Binding site [5]: Adenosine

OCC(Nc1ncnc2[nH]ccc12)C1CCOC1 (centres unmarked) [AVI-3679]
1-BDC: 0.16 | X-ray crystal structure [1]: TRUE | Pandda run, overall: Hit [6]: TRUE | Pandda run, overall: Modeled [6]: TRUE | PanDDA run, DMSO background map: 1-BDC (crystal soak 10 mM): 0.16 | PanDDA run, DMSO background map: Hit (crystal soak 10 mM): TRUE | Total number of conformations: 1 | 2*(1-BDC) (%) [4]: 32% | Binding site [5]: Adenosine

O=C(O)C(F)(F)F.OCC(Nc1ncnc2[nH]ccc12)C1CCCO1 (centres unmarked) [AVI-3645]
Pandda run, overall: Hit [6]: TRUE | Pandda run, overall: Modeling comment [6]: Weak density, not modeled | PanDDA run, DMSO background map: 1-BDC (crystal soak 10 mM): 0.22 | PanDDA run, DMSO background map: Hit (crystal soak 10 mM): TRUE | PanDDA run, TFA/DMSO background map: 1-BDC (crystal soak 10 mM): 0.12 | PanDDA run, TFA/DMSO background map: Hit (crystal soak 10 mM): TRUE

Cc1cc2c(=O)n(CCN3C(=O)c4ccccc4S3(=O)=O)nnc2s1 [AVI-341]
1-BDC: 0.18 | X-ray crystal structure [8]: TRUE | PanDDA run, DMSO background map: 1-BDC [9]: 0.18 | Pandda run, overall: Hit [10]: TRUE | Pandda run, overall: Modeled [10]: TRUE | PanDDA run, DMSO background map: Hit [11]: TRUE | PanDDA run, DMSO background map: Modeled [11]: TRUE | PanDDA run, DMSO background map: Hit [12]: TRUE | PanDDA run, DMSO background map: 1-BDC [13]: 0.19 | Pandda run, overall: Hit [14]: TRUE | Pandda run, overall: Modeling comment [14]: Duplicate, not modeled | Total number of conformations: 1 | 2*(1-BDC) (%) [4]: 36% | Binding site [15]: Adenosine

OCC(Cc1ccccn1)Nc1ncnc2[nH]ccc12 (centres unmarked) [AVI-3696]
1-BDC: 0.13 | X-ray crystal structure [1]: TRUE | Pandda run, overall: Hit [6]: TRUE | Pandda run, overall: Modeled [6]: TRUE | PanDDA run, DMSO background map: 1-BDC (crystal soak 10 mM): 0.13 | PanDDA run, DMSO background map: Hit (crystal soak 10 mM): TRUE | Total number of conformations: 2 | 2*(1-BDC) (%) [4]: 26% | Binding site [5]: Adenosine

Cc1ccc(CC(CO)Nc2ncnc3[nH]ccc23)cc1 (centres unmarked) [AVI-3683]
1-BDC: 0.15 | X-ray crystal structure [1]: TRUE | Pandda run, overall: Hit [6]: TRUE | Pandda run, overall: Modeled [6]: TRUE | PanDDA run, DMSO background map: 1-BDC (crystal soak 10 mM): 0.15 | PanDDA run, DMSO background map: Hit (crystal soak 10 mM): TRUE | Total number of conformations: 2 | 2*(1-BDC) (%) [4]: 30% | Binding site [5]: Adenosine

OCC(Cc1ccc(I)cc1)Nc1ncnc2[nH]ccc12 (centres unmarked) [AVI-3686]
1-BDC: 0.2 | X-ray crystal structure [1]: TRUE | Pandda run, overall: Hit [6]: TRUE | Pandda run, overall: Modeled [6]: TRUE | PanDDA run, DMSO background map: 1-BDC (crystal soak 10 mM): 0.2 | PanDDA run, DMSO background map: Hit (crystal soak 10 mM): TRUE | Total number of conformations: 2 | 2*(1-BDC) (%) [4]: 40% | Binding site [5]: Adenosine

CNc1ccc(NS(=O)(=O)c2cc3cccc(C)c3s2)cn1 [AVI-345]
Occupancy difference (refined_occupancy - 2*(1-BDC)): 0 | Refined ligand occupancy (%): 52% | 1-BDC: 0.26 | X-ray crystal structure [8]: TRUE | PanDDA run, DMSO background map: 1-BDC [9]: 0.17 | Pandda run, overall: Hit [10]: TRUE | Pandda run, overall: Modeling comment [10]: Duplicate, not modeled | PanDDA run, DMSO background map: Hit [11]: TRUE | PanDDA run, DMSO background map: Hit [12]: TRUE | PanDDA run, DMSO background map: Modeled [12]: TRUE | PanDDA run, DMSO background map: 1-BDC [13]: 0.26 | Pandda run, overall: Hit [14]: TRUE | Pandda run, overall: Modeled [14]: TRUE | Total number of conformations: 1 | 2*(1-BDC) (%) [7]: 52% | Binding site [15]: Adenosine

OCC1CC2(CCOCC2)CN1c1ncnc2[nH]ccc12 (centres unmarked) [AVI-3707]
1-BDC: 0.21 | Pandda run, overall: Modeled [2]: TRUE | Pandda run, overall: Modeling comment [2]: Distal site, weak density, not modeled | Pandda run, overall: Hit [3]: TRUE | Total number of conformations: 1 | 2*(1-BDC) (%) [4]: 42% | X-ray crystallography: Binding site: Adenosine | PanDDA run, DMSO background map: 1-BDC (soak concentration 10 mM): 0.21 | PanDDA run, DMSO background map: Hit (soak concentration 10 mM): TRUE

Reference: paper doi:10.1101/2024.08.25.609621 (bioRxiv, 2024)
